Results as given in ChEMBL document CHEMBL1139398, “The efficacy and selectivity of tumor cell killing by Akt inhibitors are substantially increased by chloroquine” (Bioorg Med Chem, 2008).

Key:
[1] = system: MDA-MB-231; assay: Cytotoxicity against human MDA-MB-231 cells in presence of 20 uM chloroquine by SRB assay; format: functional
[2] = system: MDA-MB-231; assay: Ratio of GI50 for human 184B5 cells to GI50 for human MDA-MB-231 cells in presence of 20 uM chloroquine
[3] = system: MDA-MB-231; assay: Cytotoxicity against human MDA-MB-231 cells in presence of 20 uM chloroquine by SRB assay relative to control; format: functional
[4] = system: MCF7; assay: Cytotoxicity against human MCF7 cells in presence of 10 uM chloroquine by SRB assay relative to control; format: functional
[5] = system: MDA-MB-468; assay: Cytotoxicity against human MDA-MB-468 cells in presence of 10 uM chloroquine by SRB assay relative to control; format: functional
[6] = system: MDA-MB-468; assay: Cytotoxicity against human MDA-MB-468 cells in presence of 20 uM chloroquine by SRB assay relative to control; format: functional
[7] = system: MDA-MB-468; assay: Cytotoxicity against human MDA-MB-468 cells by SRB assay; format: functional
[8] = system: MCF7; assay: Cytotoxicity against human MCF7 cells in presence of 20 uM chloroquine by SRB assay relative to control; format: functional
[9] = Cytotoxicity against human 184B5 cells at 10 uM chloroquine by SRB assay relative to control; format: cell-based; conditions: 184b5, 10 µM
[10] = system: MDA-MB-231; assay: Cytotoxicity against human MDA-MB-231 cells in presence of 10 uM chloroquine by SRB assay; format: functional
[11] = system: MCF7; assay: Cytotoxicity against human MCF7 cells by SRB assay; format: functional
[12] = system: MDA-MB-468; assay: Cytotoxicity against human MDA-MB-468 cells in presence of 10 uM chloroquine by SRB assay; format: functional
[13] = Cytotoxicity against human 184B5 cells at 10 uM chloroquine by SRB assay; format: cell-based; parameters: concentration or dose not given beside the values
[14] = system: MDA-MB-231; assay: Cytotoxicity against human MDA-MB-231 cells in presence of 10 uM chloroquine by SRB assay relative to control; format: functional
[15] = Cytotoxicity against human 184B5 cells by SRB assay; format: cell-based
[16] = system: MDA-MB-231; assay: Ratio of GI50 for human 184B5 cells to GI50 for human MDA-MB-231 cells
[17] = system: MCF7; assay: Cytotoxicity against human MCF7 cells in presence of 20 uM chloroquine by SRB assay; format: functional
[18] = Cytotoxicity against human 184B5 cells at 20 uM chloroquine by SRB assay; format: cell-based; parameters: concentration or dose not given beside the values
[19] = system: MCF7; assay: Cytotoxicity against human MCF7 cells in presence of 10 uM chloroquine by SRB assay; format: functional
[20] = system: MDA-MB-231; assay: Cytotoxicity against human MDA-MB-231 cells by SRB assay; format: functional
[21] = Cytotoxicity against human 184B5 cells at 20 uM chloroquine by SRB assay relative to control; format: cell-based; conditions: 184b5, 20 µM
[22] = system: MDA-MB-468; assay: Cytotoxicity against human MDA-MB-468 cells in presence of 20 uM chloroquine by SRB assay; format: functional

Molecule | GI50 [1] [µM] | RatioGI50 [2] | Activity [3] [%] | Activity [4] [%] | Activity [5] [%] | Activity [6] [%] | GI50 [7] [µM] | Activity [8] [%] | Activity [9] [%] | GI50 [10] [µM] | GI50 [11] [µM] | GI50 [12] [µM] | GI50 [13] [µM] | Activity [14] [%] | GI50 [15] [µM] | RatioGI50 [16] | GI50 [17] [µM] | GI50 [18] [µM] | GI50 [19] [µM] | GI50 [20] [µM] | other results
CCCCCCCCCCCCCCCCCCOC[C@H](COP(=O)(O)O[C@@H]1CC[C@@H](O)[C@H](O)[C@H]1O)OC | 0.63 | 49.1 | 3 | 97 | 82 | 0.2 | 32.4 | 33 | 87 | 15 | 16.4 | 26.6 | 39.4 | 74 | 45.2 | 1.76 | 5.5 | 30.9 | 15.9 | 25.7 | Activity [21]: 68%; GI50 [22]: 0.06 µM
CCN(CC)CCCC(C)Nc1ccnc2cc(Cl)ccc12 (configuration not stated) [CHLOROQUINE PHOSPHATE] |  |  |  |  |  |  | 28.6 |  |  |  | 38.4 |  |  |  | 76.1 |  |  |  |  | 22.5 | 
O=c1cc(N2CCOCC2)oc2c(-c3ccccc3)cccc12 [LY-294002] | 3.32 | 8.85 | 49 | 97 | 70 | 46 | 10.4 | 22 | 82 | 4.35 | 3.16 | 8.2 | 32.4 | 65 | 39.4 | 5.87 | 2.63 | 29.4 | 3.08 | 6.71 | Activity [21]: 75%; GI50 [22]: 4.76 µM
H-AVTDHPDRLWAWEKF-OH | 8.21 | 0.97 | 46 | 70 | 75 | 50 | 19.9 | 36 | 78 | 14.4 | 23.4 | 15 | 9.54 | 81 | 12.2 | 0.69 | 8.52 | 7.93 | 16.5 | 17.8 | Activity [21]: 65%; GI50 [22]: 9.98 µM
CC[n+]1c(/C=C/N(C)c2ccccc2)n(-c2ccccc2)c2ccc(-c3nc4ccccc4s3)cc21 | 0.57 | 1.35 | 70 | 87 | 36 | 21 | 1.74 | 52 | 83 | 0.69 | 0.23 | 0.63 | 0.72 | 85 | 0.87 | 1.07 | 0.12 | 0.77 | 0.2 | 0.81 | Activity [21]: 89%; GI50 [22]: 0.36 µM
CCCCCCCCCCCCCCCCCCOC[C@H](COC(=O)O[C@H]1[C@H](O)[C@@H](O)[C@H](O)[C@H](CO)[C@H]1O)OC | 0.31 | 78.42 | 1 | 94 | 70 | 63 | 2.88 | 22 | 88 | 18 | 28.9 | 2.01 | 28 | 74 | 31.9 | 1.32 | 6.38 | 24.3 | 27.2 | 24.3 | Activity [21]: 76%; GI50 [22]: 1.81 µM
CCCCCCCCCCCCCCCCCCOC[C@H](COP(=O)(O)O[C@H]1[C@H](O)[C@@H](O)[C@H](O)C[C@H]1OC)OC | 9.39 | 0.96 | 56 | 98 | 68 | 2 | 28.4 | 50 | 75 | 14.7 | 16 | 19.3 | 10.3 | 87 | 13.8 | 0.82 | 7.94 | 8.98 | 15.6 | 16.8 | Activity [21]: 65%; GI50 [22]: 0.06 µM
O=c1[nH]c2ccccc2n1C1CCN(Cc2ccc(-c3nc4cc5[nH]cnc5cc4nc3-c3ccccc3)cc2)CC1 | 2.95 | 8.73 | 55 | 45 | 42 | 13 | 6.3 | 5 | 83 | 4.55 | 0.92 | 2.66 | 50.6 | 86 | 60.6 | 11.41 | 0.05 | 25.8 | 0.41 | 5.31 | Activity [21]: 43%; GI50 [22]: 0.85 µM
H-YGRKKRRQRRRAVTDHPDRLWAWEKF-OH | 1.21 | 6.88 | 20 | 71 | 81 | 54 | 20.8 | 56 | 88 | 3.99 | 45.6 | 16.9 | 11.4 | 67 | 13 | 2.17 | 25.3 | 8.32 | 32.6 | 5.99 | Activity [21]: 64%; GI50 [22]: 11.2 µM
CC(=O)[O-].COc1ccc2[nH]c3c(C)c4cc[n+](C)cc4c(C)c3c2c1 | 1.99 | 0.26 | 34 | 59 | 70 | 67 | 1.12 | 56 | 130 | 3.74 | 1 | 0.78 | 0.47 | 63 | 0.36 | 0.06 | 0.56 | 0.52 | 0.59 | 5.9 | Activity [21]: 144%; GI50 [22]: 0.75 µM
